Test: in vitro
Conditions: human, hela cells, % viability

SMILES | viability at 28.5 h, 10 µM [%]
Cc1nc(-c2ccccc2)sc1CNC(=O)c1ccc([N+](=O)[O-])o1 [CBK092352] | 54.8
Cc1cccc(CN2CC[C@H]3[C@@H](C2)[C@H](c2ccsc2)CN3C(=O)c2ccccc2)c1 [CBK285619] | 106
CC(C(=O)N1CCC(c2nn(C)c3ncccc23)CC1)c1ccccc1 (stereo not shown) [CBK282166] | 97.4
CCN1CCN(C(=O)c2ccc(C)c(S(=O)(=O)Nc3cccc(C)c3)c2)CC1 [CBK268226] | 109
CCN(CC)CCN1CCN(c2cncc(-c3cccc(N)c3)n2)CC1 [CBK065751] | 97.2
Cc1cc(Cl)c(S(=O)(=O)Nc2ccon2)cc1OCC(N)=O [CBK266589] | 99.6
CC(C)n1c(NCc2nc3ccccc3n2C)nc2ccccc21 [CBK265571] | 83.6
CCOC(=O)CN1CCCN(c2ccnc(OC3CCCCC3)n2)CC1 [CBK083864] | 90.9
CC1CCCN(CC(C)(C)NC(=O)c2ccnn2C(F)F)C1 (stereo not shown) [CBK282099] | 98.4
CCC(CC)C(=O)N1CCC(CNc2cnc(-c3ccc(S(C)(=O)=O)cc3)cn2)CC1 [CBK172021] | 99.5
CS(=O)(=O)N1CCC(C(=O)NC(c2ccc(F)cc2)c2ccccn2)CC1 (stereo not shown) [CBK059696] | 94.9
COCCSc1nc2c(c(=O)[nH]c(=O)n2C)n1CCCc1ccccc1 [CBK140504] | 90.9
N=c1n(CCN2CCCCC2)c2ccccc2n1CC(O)COc1ccc(Cl)cc1Cl (stereo not shown) [CBK266336C] | 31
COc1ccc([C@@]23CC[C@@H](NC(=O)c4ccc(-c5csnn5)cc4)C[C@@H]2N(C)CC3)cc1OC [CBK074256T] | 100
COc1ccc(S(=O)(=O)N2CCN(C(=O)c3cc(-c4cccnc4)nc4c(C)cc(C)cc34)CC2)cc1OC [CBK267767] | 99.4
O=C(CO)N1CC2(CCN(CCCn3c(=O)[nH]c4ccccc43)CC2)c2ccccc21 [CBK131506] | 91.9
Clc1cc(NCc2ccc(Cl)c(Cl)c2)n2nccc2n1 [CBK037043] | 97.7
CCCNC(=O)N1CCC(n2cnc3cccnc32)CC1 [CBK282282] | 84.3
Cc1nc(C(F)(F)F)ccc1C(=O)NCCn1ccnc1C [CBK281982] | 88.9
Cc1csc(C(Cc2ccsc2)NC(=O)CC2CCCO2)n1 (stereo not shown) [CBK282227] | 92.1
COc1ccc([C@@]23CC[C@@H](NC(=O)Nc4cc(C)c(C)cc4[N+](=O)[O-])C[C@@H]2N(C)CC3)cc1OC [CBK036478T] | 67.8
Cc1c(C(C)NCC(O)c2ccco2)cnn1-c1ccc(C#N)cc1 (stereo not shown) [CBK306462] | 88.4

SMILES | viability at 28.5 h, 10 µM [%]
O=C(O)CN1C(=O)C2CCC(c3ccccc3)CC2C1=O (stereo not shown) [CBK286952] | 95.7
COc1ccc(CN2C(=O)CC3(C2=O)C(=O)N(Cc2ccccc2)c2ccc(F)cc23)cc1OC (stereo not shown) [CBK075174] | 108
O=C(O)C(Cc1ccccc1)Nc1ncnc2c1oc1ccccc12 (stereo not shown) [CBK266719] | 104
CCc1[nH]nc(C)c1Cc1c(Cl)cccc1Cl [CBK093598] | 106
CC1OCCC12CN(c1cc(CO)c(F)cn1)CCO2 (stereo not shown) [CBK304775] | 102
Cc1cc(NS(=O)(=O)c2cccc(Cl)c2C)on1 [CBK022499] | 92
O=C(CCC(=O)c1ccccc1)Nc1ccccc1N1CCNCC1 [CBK028284T] | 92.9
O=C(Nc1cccc(Cl)c1Cl)N1CCC(n2c(=O)[nH]c3ccccc32)CC1 [CBK149856] | 94.6
O=C(NCc1ccncc1)OCCc1ccncc1 [CBK200133] | 108
Nc1ncc(-c2cccc(Br)c2)nc1NCCCO [CBK063603] | 91.3
O=C(O)/C=C/C(=O)Nc1cccc(C(=O)O)c1 [CBK260988] | 97.7
O=C(c1cc(-c2ccncc2)nc2ccc(Cl)cc12)N1CCN(C/C=C/c2ccccc2)CC1 [CBK267754] | 106
O=C(CCc1ccc(S(=O)(=O)NC2CC2)cc1)N1CCCC1c1ccncc1 (stereo not shown) [CBK296673] | 106
O=C(CN1C(=O)c2ccccc2C1=O)NCC1COc2ccccc2O1 (stereo not shown) [CBK222526] | 96.8
CC1CCc2c(sc(NC(=O)c3cccs3)c2C#N)C1 (stereo not shown) [CBK304625] | 101
O=C(c1cscn1)N1CCc2ccccc2C1 [CBK200342] | 96.6
Nc1nc(OCc2cccs2)cnc1-c1ccsc1 [CBK145161] | 95.8
CCCNC(=O)CN(C)Cc1nc(-c2cccc(C(F)(F)F)c2)no1 [CBK305672] | 103
CCC(CC)Cn1c(-c2cccnc2)nc2cc(S(=O)(=O)NCCO)ccc21 [CBK003450] | 91
CCOc1cc(C2Nc3ccccc3NC3=C2C(=O)C(C(=O)OC)C(C)C3)ccc1OC(C)C (stereo not shown) [CBK268456] | 111
CCOC(=O)Cc1csc(NS(=O)(=O)c2ccc(OC(F)(F)F)cc2)n1 [CBK000852] | 110
CCN1CC(C(=O)N2CCCCC2CN(C)C)CC1=O (stereo not shown) [CBK282056] | 108

SMILES | viability at 28.5 h, 10 µM [%]
CN1CCC(N(CCO)CC2(c3ccc(Cl)cc3)CC2)CC1 [CBK282781] | 96.6
COc1ccc(N2C(=O)CC(NCCNc3ccc([N+](=O)[O-])cn3)C2=O)cc1 (stereo not shown) [CBK263593] | 85.3
Cc1ccc(S(=O)(=O)NCCSc2ccccn2)cc1[N+](=O)[O-] [CBK263566] | 82.5
CCCC(=O)N1CCC(c2cc(C(F)F)c3c(C)noc3n2)CC1 [CBK285304] | 102
Cc1cc(O)nc(C(C)N2CCN(Cc3noc(C(C)(C)C)n3)CC2)n1 (stereo not shown) [CBK305249] | 95.4
O=C(Cn1nnc(-c2ccc3c(c2)OCO3)n1)Nc1ccccc1C(=O)O [CBK268025] | 101
CN1Cc2ccccc2CC1C(=O)N1CCCC12CC=CC2 (stereo not shown) [CBK282838] | 81.3
Cc1cc(C)n(CCCn2cncc2-c2cnn(C)c2)n1 [CBK281771] | 84.9
CC12CN3CCN(CC(C3)C1(O)CN1CCOCC1)C2 (stereo not shown) [CBK263033] | 103
CCN1CCN(c2ccc(NC(=O)c3cccc(OCc4ccccc4)c3)cc2)CC1 [CBK266471] | 95
C[S+]([O-])c1ccc(-c2cnc(NCC3CCN(C(=O)OC(C)(C)C)CC3)cn2)cc1 (stereo not shown) [CBK173723] | 83.4
COc1ccccc1CC(=O)N1CCC(c2onc3c2CCC3)CC1 [CBK284464] | 99.2
O=C(NCC1COc2ccccc2O1)N1CCN(c2ccc(F)cc2)CC1 (stereo not shown) [CBK156387] | 92.8
O=C(CCCn1nnc2ccccc2c1=O)NCc1cccc(Cl)c1 [CBK294446] | 82.8
COC(C)CN(C)Cc1c(C)[nH]c2ccc(F)cc12 (stereo not shown) [CBK282035] | 84.5
CC1CN(C(=O)NC2CCCCC2)C(c2ccccc2)ON1C (stereo not shown) [CBK026650] | 109
CCNCc1cc2c(C)nn(-c3ccc(F)cc3)c2[nH]c1=O [CBK283118] | 107
Cc1cc(Cl)c(S(=O)(=O)Nc2cccc(Br)c2)cc1OCC(N)=O [CBK266535] | 100
COc1cc(CN2CCOC3(CCN(C(=O)OCc4ccccc4)CC3)C2)cc(OC)c1OC [CBK161104T] | 79.4
O=C(Nc1nnc(-c2ccco2)o1)C(c1ccccc1)c1ccccc1 [CBK287424] | 91.9
CCCCSc1nnc(NS(=O)(=O)c2ccc(NC(C)=O)cc2)s1 [CBK022853] | 98.5
COc1cc(-c2cncc(NCCCO)n2)cc(OC)c1OC [CBK065271] | 95.5

SMILES | viability at 28.5 h, 10 µM [%]
Cc1ccc(CN2C(=O)CSC2c2cn(-c3ccccc3)nc2-c2ccccc2)cc1 (stereo not shown) [CBK263678] | 94.5
O=C(COc1ccc(S(=O)(=O)N2CCCC2)cc1Cl)NCC1CCCO1 (stereo not shown) [CBK268243] | 86.6
Cc1ccc2c(c1)-c1c(ssc1=S)C(C)(C)N2C(=O)COc1nc2ccccc2s1 [CBK262682] | 88
CC1(C)CC(=O)C(=CNCCC(c2ccccc2)c2ccccc2)C(=O)C1 [CBK262057] | 114
Cc1cc(C)nc(N2CCCC(O)(c3nc(C)c(CCOc4ccccc4)s3)CC2)n1 (stereo not shown) [CBK285924] | 111
CCc1cc(C(=O)NC(c2ccc(F)cc2)c2nccn2C)n(C)n1 (stereo not shown) [CBK281434] | 108
Cn1c(=O)c(C(=O)Nc2ccc(Cl)cc2)cc2cccnc21 [CBK287741] | 94.4
O=C(NCCOc1ccccc1)N1CCN(c2ccc(F)cc2)CC1 [CBK156416] | 92.7
COCc1nc(NCCn2c(C)cc(C)nc2=O)cc(C2CCOC2)n1 (stereo not shown) [CBK307495] | 92.6
O=C(Nc1cc2ccccc2c(Br)n1)N[C@@H]1C[C@H]1c1ccccc1 [CBK063276] | 92.3
Nc1cccc(-c2nc(NC(=O)Cc3ccccc3)cnc2-c2ccc(F)cc2)c1 [CBK037550] | 91.3
N#Cc1c(O)nsc1Nc1ccc(Cl)cc1 [CBK009446] | 94.9
CN(C)/C=N/c1ncc2ncn(C3CC(O)C(CO)O3)c2n1 (stereo not shown) [CBK201175] | 90.8
CC(NC(=O)/C=C\C(=O)O)c1ccc2c(c1)OCO2 (stereo not shown) [CBK286996] | 93.3
O=C(NCCCc1ccccn1)c1cccc(N2CCCC2=O)c1 [CBK282643] | 85.9
COc1ccc(N2C(=O)CC(Nc3ccc(Cc4nc5ccccc5[nH]4)cc3)C2=O)cc1 (stereo not shown) [CBK266480] | 96.9
CC(=O)Nc1ccc(CN(C)c2c(C)nc3c(OCC4CCCCC4)cccn23)cc1 [CBK147379] | 93.5
Cc1cccc(CN2CCC(NC(=O)NCc3ccn(C)c3)CC2)c1 [CBK305259] | 105
Cc1nn(C)c2ncc(C(=O)N(C)Cc3ccc(C(C)(C)C)cc3)cc12 [CBK305657] | 99.9
CNC(=O)C1(Cc2ccccc2-c2cccs2)CCN(C(=O)Cc2ccccc2)CC1 [CBK285746] | 90.8

Same assay, conditions: human, hela cells, % viability, bulk resorufin, single well

SMILES | viability at 28.5 h, 10 µM [%]
O=C(O)C(O)(c1ccccc1)c1cccs1 (stereo not shown) [CBK022808] | 108
O=C(COc1ccc(C=C2C(=O)NC(=O)NC2=O)cc1)NCc1ccccc1 [CBK263736] | 93.3

— publication PMC12040169 (PLOS Biology, 2025)
